Reference: US7807176B2, “Polypeptide promoting vascular endothelial cell growth” (Genomidea, Inc., priority 2004, dated 2010)
“Also recorded” adds a separate entry of the source.

Experiments:
[1] = tested on: c-fos promoter; assay: c-fos promoter assay (c-fos-Luci luciferase); type: cell-based, bovine; settings: FIG. 8
Method: To further confirm the proliferation ability, an assay using a promoter of proto-oncogene c-fos, which is activated in the earliest stage of cell proliferation, was carried out. The gene c-fos-Luci having luciferase ligated under this promoter, and a candidate gene, were introduced in a weight ratio of 1:1 by lipofection into bovine vascular endothelial cells, and after 24 to 48 hours, the luciferase activity was measured.

[2] = tested on: tube formation; assay: Tube formation, Kurabo Angiogenesis kit with CD31 staining and image quantification; type: cell-based, human; settings: for tube Area % Increase / tube Length % Increase: Table 2; for Area (% increase): Example 5, Table 4; for Length (% increase): Example 5, Table 5
Method: Using a Kurabo Angiogenesis kit (KZ-1000, Kurabo Industries Ltd.), tube formation was examined. A blank, vascular endothelial growth factor-A protein (VEGF-A), pVEGF plasmid (plasmid containing a gene encoding vascular endothelial growth factor), and pSPORT1 (a plasmid not containing a gene encoding vascular endothelial growth factor) were used as controls. […]
Culture was carried out at 37° C. in a 5% CO2 incubator. The medium was exchanged on the 4th, 7th and 9th days of culture with a fresh medium containing the same additives.
CD31 (PECAM-1) staining primary antibody (mouse anti-human CD31 antibody) was diluted 4,000-fold with a blocking solution (Dulbecco's phosphate buffer solution (PBS(−)) containing 1% BSA). 0.5 ml of this primary antibody solution was added to each well and incubated for 60 minutes at 37° C. After incubation was finished, each well was washed 3 times with 1 ml blocking solution.
Then, 0.5 ml of a secondary antibody (goat anti-mouse IgG/alkali phosphatase conjugate) solution, diluted 500-fold with the blocking solution, was added to each well and incubated for 60 minutes at 37° C., and each well was washed 3 times with 1 ml distilled water. Separately, 2 tablets of BCIP/NBT were dissolved in 20 ml distilled water and filtered through a filter with a pore size of 0.2 μm, to prepare a substrate solution. 0.5 ml of the prepared BCIP/NBT substrate solution was added to each well and incubated at 37° C. until the tube turned deep violet (usually in 5 to 10 minutes). After incubation was finished, each well was washed 3 times with 1 ml distilled water, followed by removing the washing solution using suction, and the plate was left to air-dry. After drying, each well was observed under a microscope.
Each well was observed under a 40× magnification microscope and a photograph of each well was taken. An enlarged photograph with the scale of 1 mm magnified 40-fold was taken (FIG. 5).
Each of the resulting images was quantified with angiogenesis quantification software (KSW-5000U, Kurabo Industries Ltd.) according to the following method. The area (left in FIG. 6) and length (right in FIG. 6) of tubes formed in each visual field were measured on the scale by computer analysis with various indicators. […]

[3] = tested on: C57BL/6 female mouse; assay: Matrigel plug assay, in vivo angiogenesis; settings: 1 μg/ml in Matrigel, subcutaneous, after 7 days
Method: In order to examine the in vivo angiogenesis-promoting activity of F2 peptide, a Matrigel plug assay (Rikitake, Y et al., Arterioscler Thromb Vasc Biol 20, 1006-1012 (2000)) was carried out. Together with any one of VEGF-A (50 ng/ml), F2 peptide (1 μg/ml) or the control peptide (1 μg/ml) or without adding any sample (negative control), Matrigel (0.5 ml, BD Biosciences, Franklin Lakes, N.J.) depleted of growth factor was mixed with 40 U/ml heparin (Aventis Pharma, Tokyo, JP). Then, each mixture was injected subcutaneously into a C57BL/6 female mouse obtained from Oriental Bioscience (Kyoto, JP). After 7 days, the mouse was sacrificed, and the plug was recovered and fixed in methanol. For immune staining, the section was incubated overnight at 4° C. with anti-CD31 (PECAM-1) monoclonal antibody (diluted at 1:100, BD Pharmigen, San Diego, Calif.) and then incubated for 2 hours with Alexa Flour 488 secondary antibody (1:1000, Molecular Probes, Eugene, Oreg.) before photographing. Every experimental protocol was approved by Animal Committee, Medical Department, Graduate School, Osaka University, JP.

[4] = tested on: fibroblast growth factor (FGF-2) mRNA; assay: Growth factor mRNA expression level: FGF-2; type: cell-based
[5] = tested on: insulin-like growth factor-1 (IGF-1) mRNA; assay: Growth factor mRNA expression level: IGF-1; type: cell-based
[6] = tested on: endothelial nitric oxide synthase (eNOS) mRNA; assay: Growth factor mRNA expression level: eNOS; type: cell-based
[7] = tested on: ERK (extracellular signal-related kinase); assay: Effect on ERK activity; settings: data are not shown
[8] = tested on: phosphatidyl inositol-3-kinase/Akt (PI3K/Akt); assay: Effect on PI3K/Akt activity; settings: data are not shown
[9] = tested on: Human endothelial cells; assay: Test Example 2: growth of endothelial cells; type: cell-based; settings: 1, 10 and 100 ng/ml; Test Example 2, present tense
Method: Human endothelial cells are sensitized with the HVJ envelope vector and then cultured in the presence or absence of human F2 peptide added externally (1, 10 and 100 ng/ml), to determine the increase (%) of the number of cells. […] Separately, endothelial cells sensitized with the HVJ envelope vector (concentration: 10 μg/ml) are cultured and an increase in the number of cells is measured to determine percentage increase (%). […] Further, the endothelial cells sensitized with the HVJ envelope vector are cultured in the presence or absence of rabbit anti-human F peptide antibody, and then an increase in the number of cells is measured to determine percentage increase (%).

MLSLIFLHRLKSMRKRLDRKLRFWHRKNYP (listed as Homo sapiens) [F2 peptide]
activity in c-fos promoter assay of gene fragments in pCDNA3.1 [1]: same activity as that of VEGF | tube Area % Increase ([2]; 100 ng/ml): 61% | tube Length % Increase ([2]; 100 ng/ml): 53% | Area (% increase) ([2]; 1 μg/ml): 41.8% | Length (% increase) ([2]; 1 μg/ml): 38.5% | tube Area % Increase ([2]; 1 μg/ml): 55% | tube Length % Increase ([2]; 1 μg/ml): 50% | Area (% increase) ([2]; 10 μg/ml): 131.4% | Length (% increase) ([2]; 10 μg/ml): 115.5% | angiogenesis activity compared with LL-37 peptide (in words) ([2]; 10 μg/ml, FIG. 15): higher angiogenesis activity at a dose of 10 μg/ml than that of LL-37 peptide | tube Area % Increase ([2]; 10 μg/ml): 132% | tube Length % Increase ([2]; 10 μg/ml): 116% | in vitro angiogenesis activity (in words) ([2]; F2 0.1, 1, 10 μg/ml versus VEGF 50 ng/ml and control peptide): larger blood vessels were formed; also recorded: stronger angiogenesis enhancing activity than that of VEGF | newly formed blood vessels containing intact erythrocytes in the plug ([3]; FIG. 12): more newly formed blood vessels containing intact erythrocytes than in the mouse receiving a Matrigel containing the control peptide | newly formed blood vessels by immune staining with anti-CD31 antibody ([3]; FIG. 13): more newly formed blood vessels | effect on mRNA level of FGF-2 (in words) [4]: did not have any effect | FGF-2 mRNA Increased Amount [times] ([4]; 24 hrs): 5.7 times | FGF-2 mRNA Increased Amount [times] ([4]; 48 hrs): 6.0 times | FGF-2 mRNA Increased Amount [times] ([4]; 72 hrs): 9.4 times | IGF-1 mRNA Increased Amount [times] ([5]; 24 hrs): 46.2 times | IGF-1 mRNA Increased Amount [times] ([5]; 48 hrs): 97.9 times | IGF-1 mRNA Increased Amount [times] ([5]; 72 hrs): 243.8 times | effect on mRNA level of IGF-1 (in words) ([5]; over 72 hours, FIG. 16): up-regulated the mRNA level of insulin-like growth factor-1 (IGF-1) potently and specifically in a time-dependent manner | effect on mRNA level of eNOS (in words) [6]: did not have any effect | eNOS mRNA Increased Amount [times] ([6]; 24 hrs): 0.1 times | eNOS mRNA Increased Amount [times] ([6]; 48 hrs): 6.1 times | eNOS mRNA Increased Amount [times] ([6]; 72 hrs): 0.7 times | effect on ERK activity [7]: did not have any direct effect | effect on PI3K/Akt activity [8]: did not have any direct effect | growth of endothelial cells with externally added peptide [9]: growth of endothelial cells is promoted
